Like-named read-outs stand apart in the source and are kept apart here.
Columns and labels:
poliovirus (PV1) = assay type: cell-based, Poliovirus-1
coliphage MS2 = assay type: cell-based, coliphage MS2 (ATCC 15597-B1); conditions: for log10 reduction of MS2 / reduction of MS2: in NaCl, UV light
HAV = assay type: cell-based, hepatitis A virus, strain HM175; conditions: for reduction of HAV: in plasma
Klebsiella oxytoca = assay: Inactivation of Klebsiella oxytoca in human plasma; assay type: cell-based; conditions: 10^−5 M with light (FIG. 7)
E. coli B [1] = assay type: cell-based, Escherichia coli B (ATCC 11303); conditions: for log10 reduction of E. coli B / percentage reduction of E. coli B: 10^−3 M in NaCl, 365 nm UV; for log10 reduction of Escherichia coli B / percentage reduction of Escherichia coli B: 365 nm light
Escherichia coli B = assay: Initial studies: inactivation of Escherichia coli B with and without aeration of the medium; assay type: cell-based
Text: Light alone, or porphyrin alone, were ineffective.

[2] = tested on: Chinese Hamster Ovary (CHO) cells
E. coli B [3] = assay: Inactivation of E. coli B on porphyrin-containing cellulose acetate membranes; assay type: cell-based, Escherichia coli B (ATCC 11303); conditions: cellulose acetate membranes containing the porphyrin, UV light, 100 minutes
Method: Cultures of E. coli B (ATCC 11303) were grown the day before an experiment to log phase growth in 50 milliliters of tryptic soy broth (TSB) followed by centrifugation at 3000 rpm for 10 minutes and at 4° C. The supernatant was drawn off and discarded and pellets were resuspended in 10 mL of 0.2 M phosphate buffered saline (PBS; pH 7.2). The centrifugation-resuspension process was repeated for a total of three times. Preparations were kept at 4° C. until ready for use. Bacterial cultures were assayed on tryptic soy agar (TSA) by spot or spread plating duplicate 0.04 to 0.1 ml volumes of the serially diluted preparation onto the agar plates, and was enumerated via colony counts after incubation overnight at 44.5° C. Results are expressed as cfu/ml. On the day of an experiment, the stock preparation was serially diluted in PBS to a target concentration of about […] E. coli cells per milliliter for use on membranes and in solution, respectively. Duplicate 0.1 ml volumes of the experimental samples were spread plated on TSA and incubated overnight at 44.5° C.
When cellulose acetate membranes containing protoporphyrin IX (disodium salt) were exposed to UV light, E. coli B was inactivated by 0.3 log10 cfu/ml in 100 minutes and by about 1.0 log10 (90%) in 300 minutes (FIG. 8).

[4] = 10^−4 M, another experiment (controls 193)
[5] = 10^−4 M, six days, first experiment (controls 271)
[6] = 10^−5 M, another experiment (controls 193)
[7] = 10^−5 M, six days, first experiment (controls 271)

In the case of C[n+]1ccc(-c2c3nc(c(-c4cc[n+](C)cc4)c4ccc([nH]4)c(-c4cc[n+](C)cc4)c4nc(c(-c5cc[n+](C)cc5)c5ccc2[nH]5)C=C4)C=C3)cc1.Cc1ccc(S(=O)(=O)[O-])cc1.Cc1ccc(S(=O)(=O)[O-])cc1.Cc1ccc(S(=O)(=O)[O-])cc1.Cc1ccc(S(=O)(=O)[O-])cc1 [TMPyP4, tetrakis (N-methyl-4-pyridiniumyl) porphine tetratosylate], the “poliovirus (PV1) in the absence of light” value (poliovirus (PV1)) is reported as “unaffected”, the “MS2 incubated in the dark, infectivity assay” value (coliphage MS2; 10^−3 M in PBS, dark) is reported as “not detected” and the “log10 reduction of MS2” value (coliphage MS2; 1 minute) is reported as 0.3 log10. The “reduction of MS2” value (coliphage MS2; 1 minute) was 50%, the “log10 reduction of MS2” value (coliphage MS2; 10 minutes) was 0.9 log10 and the “reduction of MS2” value (coliphage MS2; 10 minutes) was 87%. For the same compound, the “log10 reduction of MS2” value (coliphage MS2; 60 minutes) was > 3.8 log10, the “reduction of MS2” value (coliphage MS2; 60 minutes) was > 99.98% and the “MS2 in the absence of light” value (coliphage MS2; no light (FIG. 3)) was “unaffected”. For the same compound, the “MS2 in porphyrin/plasma mixture not exposed to LWUV” value (coliphage MS2; plasma, no LWUV) was “not detectable”, the “inactivation of HAV in water” value (HAV; 10^−5M in water, light, 30 min (FIG. 5)) was “greater than 3 logs” and the “inactivation of Klebsiella oxytoca” value (Klebsiella oxytoca) was “over 5 log10”. For the same compound, the “log10 reduction of E. coli B” value (E. coli B [1]; 1 minute) was 1.7 log10, the “percentage reduction of E. coli B” value (E. coli B [1]; 1 minute) was 98% and the “log10 reduction of E. coli B” value (E. coli B [1]; 10 minutes) was 2.4 log10. For the same compound, the “percentage reduction of E. coli B” value (E. coli B [1]; 10 minutes) was 99.6%, the “log10 reduction of E. coli B” value (E. coli B [1]; 30 minutes) was 3.7 log10 and the “percentage reduction of E. coli B” value (E. coli B [1]; 30 minutes) was 99.98%. The “log10 reduction of E. coli B” value (E. coli B [1]; 90 minutes) was > 5.9 log10, the “E. coli B incubated in the dark, infectivity assay” value (E. coli B [1]; 10^−3 M in PBS, dark) was “not detected” and the “infectivity of E. coli B after treatment” value (E. coli B [1]; 10^−5 M in PBS, with or without light, one minute (FIG. 9)) was “decreased below detection limits”. The “inactivation of Escherichia coli B” value (Escherichia coli B; 30 minutes, medium aerated by sparging with air) was “over 3.7 log”, the “inactivation of Escherichia coli B, medium not aerated” value (Escherichia coli B; medium not aerated) was “No inactivation” and the “effect of porphyrin alone on Escherichia coli B” value (Escherichia coli B; porphyrin alone, without light) was “ineffective”. The CHO colony count [2, 4] was “no colony forming units detected”, the CHO colony count [2, 5] was “no cells could be detected” and the CHO colony count [2, 6] was 183 cfu/well. The CHO colony count [2, 7] was 322 cfu/well.
In the case of Cl.Cl.O=S(=O)(O)c1ccc(-c2c3nc(c(-c4ccc(S(=O)(=O)O)cc4)c4ccc([nH]4)c(-c4ccc(S(=O)(=O)O)cc4)c4nc(c(-c5ccc(S(=O)(=O)O)cc5)c5ccc2[nH]5)C=C4)C=C3)cc1 [TPPS4, meso-tetra-(4-sulfonatophenyl)-porphine dihydrochloride], the “MS2 in the absence of light” value (coliphage MS2) is reported as “unaffected”, the “coliphage MS2 after 10 minutes of contact” value (coliphage MS2) is reported as “unaffected” and the “inactivation of coliphage MS2 in plasma” value (coliphage MS2) is reported as “about 3 logs”. The “initial infectious test microbes remaining at the end of each experimental period” value (coliphage MS2) was “approximately 100%”, the “loss of infectivity without UV light” value (coliphage MS2) was “no loss of infectivity” and the “inactivation of HAV in plasma” value (HAV) was “about 1 log”. For the same compound, the “inactivation of HAV in water” value (HAV) was 2 logs, the “reduction of HAV in plasma” value (HAV) was 2 logs and the “log10 reduction of Escherichia coli B” value (E. coli B [1]; 10^−5 M in PBS, 1 minute) was 0.6 log10. For the same compound, the “percentage reduction of Escherichia coli B” value (E. coli B [1]; 10^−5 M in PBS, 1 minute) was 75%, the “log10 reduction of Escherichia coli B” value (E. coli B [1]; 10^−5 M in PBS, 10 minutes) was 1.6 log10 and the “percentage reduction of Escherichia coli B” value (E. coli B [1]; 10^−5 M in PBS, 10 minutes) was 97%. For the same compound, the “log10 reduction of Escherichia coli B” value (E. coli B [1]; 10^−5 M in PBS, 30 minutes) was > 5.5 log10, the “loss of infectivity of E. coli B in the absence of long-wavelength UV light” value (E. coli B [1]; porphyrin without long-wavelength UV light) was “did not result in any loss of infectivity” and the CHO colony count [2, 4] was 189 cfu/well. For the same compound, the CHO colony count [2, 5] was 320 cfu/well and the CHO colony count [2, 7] was 310 cfu/well.
CCCC[n+]1ccc(-c2c3nc(c(-c4cc[n+](CCCC)cc4)c4ccc([nH]4)c(-c4cc[n+](CCCC)cc4)c4nc(c(-c5cc[n+](CCCC)cc5)c5ccc2[nH]5)C=C4)C=C3)cc1 [TPyPH2(N-Bu), tetrakis (4-n-butylpyridiniumyl) porphyrin] was tested, and the “reduction of HAV” value (HAV; 1 minute (first of five values)) was 0.1 log10, the “reduction of HAV” value (HAV; 10 minutes (second of five values)) was 1.5 log10 and the “reduction of HAV” value (HAV; 30 minutes (third of five values)) was 1.6 log10. For the same compound, the “reduction of HAV” value (HAV; 90 minutes (last of five values)) was > 3.3 log10, the “reduction of HAV” value (HAV; fourth of five values, its time is not given) was 2.7 log10 and the CHO colony count [2, 4] was “no colony forming units detected”. The CHO colony count [2, 6] was 186 cfu/well.
With C=CC1=C(C)c2cc3[nH]c(cc4nc(cc5[nH]c(cc1n2)c(C)c5CCC(=O)O)C(CCC(=O)O)=C4C)c(C)c3C=C [protoporphyrin IX] the “inactivation of E. coli B” value (E. coli B [3]) was 0.3 log10 cfu/ml.
